Reference: PMC7038139, “Novel Peptide CM 7 Targeted c-Met with Antitumor Activity” (Molecules, 2020)
“Also recorded” adds a separate entry of the source.

Legend:
[1] = system: c-Met-positive MKN-45 cells; assay: Confocal microscope imaging of binding to MKN-45 cells; set-up: species or system Human; settings: MKN-45 cells (fixed); 1 μM, 1 h, room temperature
Protocol: (§1) Human gastric cancer cell line MKN-45 cells were from the Chinese Academy of Medical Sciences, Beijing, China. Human gastric cancer cell line MKN-28 cells, the human glioma cell line U87 cells, and MDCK cells were obtained from the American Type Culture Collection (ATCC). The MKN-45 and MKN-28 cells were grown under a humidified atmosphere of 5% CO2 at 37 °C in RPMI 1640 medium (Biological Industries, Israel), supplemented with 10% fetal bovine serum (FBS, Biological Industries, Israel), 2 mmol/L L-glutamine (Gibco, Life Technologies, Grand Island, NY, USA), 100 U/mL penicillin, and 100 μg/mL streptomycin (Invitrogen, Carlsbad, CA, USA). MDCK and U87 cells were cultured under a humidified atmosphere of 5% CO2 at 37 °C in Dulbecco’s modified Eagle’s medium (DMEM) (Gibco, Life Technologies, Grand Island, NY, USA), supplemented with 10% FBS, 2 mmol/L L-glutamine (Gibco, Life Technologies, Grand Island, NY, USA), 100 U/mL penicillin, and 100 μg/mL streptomycin (Invitrogen, Carlsbad, CA, USA).
(§2) MKN-45 and MKN-28 cells were plated separately in a glass-bottom cell culture dish (NEST) with serum-free media overnight. The next day, cells were fixed with 4% paraformaldehyde for 20 min at room temperature. […]

[2] = system: c-Met-positive MKN-45 cells; assay: Flow cytometry binding to c-Met-positive MKN-45 cells; set-up: species or system Human; settings: 1 μM, 1 h, room temperature
Protocol: as §1
(§3) A flow cytometry assay was used to evaluate the conjugation and affinity of the newly designed peptides CM 7, CM 14, or FITC alone to c-Met-positive MKN-45 cells and c-Met-negative MKN-28 cells. Briefly, MKN-45 and MKN-28 cells were detached by 0.25% trypsin and the final cell concentration was adjusted to 3 × 10^6 cells/mL. […]

[3] = system: c-Met-negative MKN-28 cells; assay: Confocal microscope imaging of binding to MKN-28 cells; set-up: species or system Human; settings: MKN-28 cells (fixed); 1 μM, 1 h, room temperature
Protocol: as §1, §2

[4] = system: c-Met-negative MKN-28 cells; assay: Flow cytometry binding to c-Met-negative MKN-28 cells; set-up: species or system Human; settings: 1 μM, 1 h, room temperature
Protocol: as §1, §3

[5] = system: MKN-28 cells; assay: Cell proliferation assay, MKN-28; type: cell-based, Human; settings: Crizotinib 40 nM, positive control; 4 days
Protocol: as §1
(§4) As described in the literature, MKN-45, MKN-28, and U87 cells were seeded into 48-well culture plates (6500 cells/well) and cultured overnight. […] After 4 days, the cells were trypsinized and counted by a cell counter. […]

[6] = system: U87 cells; assay: Cell proliferation assay, U87 (HGF-stimulated); type: cell-based, human; settings: Crizotinib 40 nM, positive control; 20 ng/mL HGF; 4 days
Protocol: as §1, §4

[7] = system: MKN-45 cells; assay: Cell proliferation assay, MKN-45; type: cell-based, Human; settings: Crizotinib 40 nM, positive control; 4 days
Protocol: as §1, §4

Structure (SMILES): O=C1OC2(c3ccc(O)cc3Oc3cc(O)ccc32)c2ccc(N=C=S)cc21 [FITC, Fluorescein isothiocyanate isomer]
- Binding / fluorescent signal by confocal imaging [1]: could not bind to MKN-45 or MKN-28 cells
- Binding by flow cytometry (in words) [2]: hardly combined
- Binding / fluorescent signal by confocal imaging [3]: could not bind to MKN-45 or MKN-28 cells; also recorded: did not show any fluorescent signals
- Binding by flow cytometry (in words) [4]: hardly combined

Structure (SMILES): C[C@@H](Oc1cc(-c2cnn(C3CCNCC3)c2)cnc1N)c1c(Cl)ccc(F)c1Cl [Crizotinib, reference compound]
- Inhibition of cell proliferation [5]: significantly inhibit
- Inhibition of cell proliferation [6]: significantly inhibit
- Inhibition of cell proliferation [7]: significantly inhibit
